Data taken from patent US20220125051A1, “PRE-HARVEST DESICCATION METHOD” (SYNGENTA CROP PROTECTION AG, priority 2019, published 2022).
Where two headings read alike, the source gives them in different places.

Assays:
Experiment in all cases: Post-emergence efficacy, Method A
Format in all cases: in vivo
[1] = test system: Amaranthus palmeri (AMAPA); conditions: Amaranthus palmeri, post-emergence, 312 h, evaluated after 13 days
How it was run: (§1)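 Sow in standard soil; grow 14 d under glasshouse control (24/16 °C, 14 h light, 65% humidity). Spray post-emergence with compound formulated in acetone/IF50, diluted in Empicol ESC70 (0.25% or 1%) + 1% ammonium sulphate. Return to glasshouse, water twice daily, score at 13 d on a 0–100 damage scale.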

[2] = test system: Chenopodium album (CHEAL); conditions: Chenopodium album, post-emergence, 312 h, evaluated after 13 days
How it was run: as §1

[3] = test system: Digitaria sanguinalis (DIGSA); conditions: Digitaria sanguinalis, post-emergence, 312 h, evaluated after 13 days
How it was run: as §1

[4] = test system: Echinochloa crus-galli (ECHCG); conditions: Echinochloa crus-galli, post-emergence, 312 h, evaluated after 13 days
How it was run: as §1

Eleusine indica (ELEIN) = conditions: Eleusine indica, post-emergence, 312 h, evaluated after 13 days
How it was run: as §1

[5] = test system: Euphorbia heterophylla (EPHHL); conditions: Euphorbia heterophylla, post-emergence, 312 h, evaluated after 13 days
How it was run: as §1

[6] = test system: Ipomoea hederacea (IPOHE); conditions: Ipomoea hederacea, post-emergence, 312 h, evaluated after 13 days
How it was run: as §1

Lolium perenne (LOLPE) = conditions: Lolium perenne, post-emergence, 312 h, evaluated after 13 days
How it was run: as §1

Setaria faberi (SETFA) = conditions: Setaria faberi, post-emergence, 312 h, evaluated after 13 days
How it was run: as §1

[7] = Application Rate 500 g/Ha, Method A, read-out: Control of weed species after post-emergence application, AMAPA (100=total damage to plant; 0=no damage to plant)
[8] = Application Rate 500 g/Ha, Method A, read-out: Control of weed species after post-emergence application, CHEAL (100=total damage to plant; 0=no damage to plant)
[9] = Application Rate 500 g/Ha, Method A, read-out: Control of weed species after post-emergence application, DIGSA (100=total damage to plant; 0=no damage to plant)
[10] = Application Rate 500 g/Ha, Method A, read-out: Control of weed species after post-emergence application, ECHCG (100=total damage to plant; 0=no damage to plant)
[11] = Application Rate 500 g/Ha, Method A, read-out: Control of weed species after post-emergence application, ELEIN (100=total damage to plant; 0=no damage to plant)
[12] = Application Rate 500 g/Ha, Method A, read-out: Control of weed species after post-emergence application, EPHHL (100=total damage to plant; 0=no damage to plant)
[13] = Application Rate 500 g/Ha, Method A, read-out: Control of weed species after post-emergence application, IPOHE (100=total damage to plant; 0=no damage to plant)
[14] = Application Rate 500 g/Ha, Method A, read-out: Control of weed species after post-emergence application, LOLPE (100=total damage to plant; 0=no damage to plant)
[15] = Application Rate 500 g/Ha, Method A, read-out: Control of weed species after post-emergence application, SETFA (100=total damage to plant; 0=no damage to plant)
[16] = Application rate 500 g/Ha, 100=total damage to plant, 0=no damage to plant, read-out: Control of weed species after post-emergence application, AMAPA
[17] = Application rate 500 g/Ha, 100=total damage to plant, 0=no damage to plant, read-out: Control of weed species after post-emergence application, CHEAL
[18] = Application rate 500 g/Ha, 100=total damage to plant, 0=no damage to plant, read-out: Control of weed species after post-emergence application, DIGSA
[19] = Application rate 500 g/Ha, 100=total damage to plant, 0=no damage to plant, read-out: Control of weed species after post-emergence application, ECHCG
[20] = Application rate 500 g/Ha, 100=total damage to plant, 0=no damage to plant, read-out: Control of weed species after post-emergence application, ELEIN
[21] = Application rate 500 g/Ha, 100=total damage to plant, 0=no damage to plant, read-out: Control of weed species after post-emergence application, EPHHL
[22] = Application rate 500 g/Ha, 100=total damage to plant, 0=no damage to plant, read-out: Control of weed species after post-emergence application, IPOHE
[23] = Application rate 500 g/Ha, 100=total damage to plant, 0=no damage to plant, read-out: Control of weed species after post-emergence application, LOLPE
[24] = Application rate 500 g/Ha, 100=total damage to plant, 0=no damage to plant, read-out: Control of weed species after post-emergence application, SETFA

SMILES | pest or weed control at 500 g/ha [1, 7] | pest or weed control at 500 g/ha [2, 8] | pest or weed control at 500 g/ha [3, 9] | pest or weed control at 500 g/ha [4, 10] | pest or weed control at 500 g/ha (Eleusine indica (ELEIN); [11]) | pest or weed control at 500 g/ha [5, 12] | pest or weed control at 500 g/ha [6, 13] | pest or weed control at 500 g/ha (Lolium perenne (LOLPE); [14]) | pest or weed control at 500 g/ha (Setaria faberi (SETFA); [15]) | pest or weed control at 500 g/ha [1, 16] | pest or weed control at 500 g/ha [2, 17] | pest or weed control at 500 g/ha [3, 18] | pest or weed control at 500 g/ha [4, 19] | pest or weed control at 500 g/ha (Eleusine indica (ELEIN); [20]) | pest or weed control at 500 g/ha [5, 21] | pest or weed control at 500 g/ha [6, 22] | pest or weed control at 500 g/ha (Lolium perenne (LOLPE); [23]) | pest or weed control at 500 g/ha (Setaria faberi (SETFA); [24]) | also measured
O=S(=O)([O-])CCC[n+]1ccc(-c2nccc(CO)n2)cn1 [Compound A154] | – | – | – | – | – | – | – | – | – | – | – | – | – | – | – | – | – | – | pest or weed control at 125 g/ha ([1]; Application Rate 125 g/Ha, Method A, read-out: Control of weed species after post-emergence application, AMAPA (100=total damage to plant; 0=no damage to plant)): 40%; pest or weed control at 125 g/ha ([2]; Application Rate 125 g/Ha, Method A, read-out: Control of weed species after post-emergence application, CHEAL (100=total damage to plant; 0=no damage to plant)): 50%; pest or weed control at 125 g/ha ([3]; Application Rate 125 g/Ha, Method A, read-out: Control of weed species after post-emergence application, DIGSA (100=total damage to plant; 0=no damage to plant)): 20%; pest or weed control at 125 g/ha ([4]; Application Rate 125 g/Ha, Method A, read-out: Control of weed species after post-emergence application, ECHCG (100=total damage to plant; 0=no damage to plant)): 20%; pest or weed control at 125 g/ha (Eleusine indica (ELEIN); Application Rate 125 g/Ha, Method A, read-out: Control of weed species after post-emergence application, ELEIN (100=total damage to plant; 0=no damage to plant)): 10%; pest or weed control at 125 g/ha ([5]; Application Rate 125 g/Ha, Method A, read-out: Control of weed species after post-emergence application, EPHHL (100=total damage to plant; 0=no damage to plant)): 70%; pest or weed control at 125 g/ha ([6]; Application Rate 125 g/Ha, Method A, read-out: Control of weed species after post-emergence application, IPOHE (100=total damage to plant; 0=no damage to plant)): 20%; pest or weed control at 125 g/ha (Lolium perenne (LOLPE); Application Rate 125 g/Ha, Method A, read-out: Control of weed species after post-emergence application, LOLPE (100=total damage to plant; 0=no damage to plant)): 10%; pest or weed control at 125 g/ha (Setaria faberi (SETFA); Application Rate 125 g/Ha, Method A, read-out: Control of weed species after post-emergence application, SETFA (100=total damage to plant; 0=no damage to plant)): 30%
O=S(=O)([O-])CC[n+]1ccc(-c2ccc(C(F)(F)F)cn2)cn1 [Compound A174] | 100% | 40% | 50% | 50% | 60% | 60% | 50% | 60% | 60% | – | – | – | – | – | – | – | – | – | –
Cc1cnc(-c2cc[n+](CCC(=O)O)nc2)nc1 [Compound A36] | – | – | – | – | – | – | – | – | – | 100% | 90% | 90% | 90% | 100% | 90% | 30% | 80% | 100% | –
Cc1cc(F)cnc1-c1cc[n+](CCC(=O)O)nc1 [Compound A151] | – | – | – | – | – | – | – | – | – | 20% | 20% | 20% | 20% | 20% | 40% | 10% | 10% | 20% | –
O=S(=O)([O-])CC[n+]1ccc(-c2cccc(C(F)(F)F)n2)cn1 [Compound A74] | – | – | – | – | – | – | – | – | – | 60% | 30% | 50% | 60% | 80% | 60% | 50% | 60% | 80% | –
CC(CC(=O)O)[n+]1ccc(-c2ccncn2)cn1 (stereo not drawn) [Compound A172] | 30% | 60% | 80% | 50% | 70% | 50% | 40% | 20% | 50% | – | – | – | – | – | – | – | – | – | –
O=S(=O)([O-])CC[n+]1ccc(-c2ccnc(C(F)(F)F)c2)cn1 [Compound A165] | 100% | 50% | 60% | 70% | 70% | 50% | 40% | 60% | 60% | – | – | – | – | – | – | – | – | – | –
CC(CNS(=O)(=O)[O-])[n+]1ccc(-c2ncccn2)cn1 (stereo not drawn) [Compound A223] | 100% | 90% | 90% | 70% | 90% | 80% | 60% | 80% | 80% | – | – | – | – | – | – | – | – | – | –
Cc1cnc(-c2cc[n+](CCS(=O)(=O)[O-])nc2)c(F)c1 [Compound A135] | – | – | – | – | – | – | – | – | – | 60% | 20% | 30% | 50% | 70% | 50% | 30% | 60% | 50% | –
Cc1c[n+](CCC(=O)O)ncc1-c1ncccn1 [Compound A153] | 90% | 60% | 20% | 40% | 20% | 40% | 20% | 0% | 20% | – | – | – | – | – | – | – | – | – | –
O=S(=O)([O-])CC[n+]1ccc(-c2ncc(Cl)cc2Cl)cn1 [Compound A142] | – | – | – | – | – | – | – | – | – | 10% | 20% | 40% | 40% | 60% | 60% | 20% | 10% | 30% | –
COc1cnc(-c2cc[n+](CCS(=O)(=O)[O-])nc2)nc1 [Compound A14] | – | – | – | – | – | – | – | – | – | 80% | 60% | 90% | 60% | 90% | 20% | 40% | 40% | 60% | –
